Data on three molecules can be found in article PMC9780857 (International Journal of Molecular Sciences, 2022).

Data set [1] addresses T1, hOCT2 (Homo sapiens, UniProt O15244).
T1 sequence (O15244 1-555): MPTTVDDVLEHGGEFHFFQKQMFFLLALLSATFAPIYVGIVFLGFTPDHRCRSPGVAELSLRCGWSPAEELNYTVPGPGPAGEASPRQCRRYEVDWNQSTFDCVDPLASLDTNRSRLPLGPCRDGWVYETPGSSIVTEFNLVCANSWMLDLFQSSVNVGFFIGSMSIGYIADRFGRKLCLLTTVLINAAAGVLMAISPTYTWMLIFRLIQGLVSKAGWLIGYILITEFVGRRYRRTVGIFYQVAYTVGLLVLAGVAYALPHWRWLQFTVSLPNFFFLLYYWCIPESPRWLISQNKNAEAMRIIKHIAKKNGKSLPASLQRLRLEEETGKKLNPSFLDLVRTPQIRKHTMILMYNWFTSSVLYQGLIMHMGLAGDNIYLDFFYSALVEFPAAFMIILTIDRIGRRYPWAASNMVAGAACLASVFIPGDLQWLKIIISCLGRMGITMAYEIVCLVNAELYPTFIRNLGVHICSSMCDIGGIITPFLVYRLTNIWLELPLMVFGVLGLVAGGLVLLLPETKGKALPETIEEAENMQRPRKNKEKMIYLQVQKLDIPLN
Particulars: read-out: IC50, hOCT2-mediated metformin uptake; cited from earlier work.

Data set [2] concerns the target T1, hOCT2. Description: Inhibition of hOCT2-mediated 14C-metformin uptake in transfected HEK293 cells. It counts as cell-based. More on the design: expressed in transfected cells; host or cells: HEK293 (stably transfected). Particulars: HEK293; for inhibition at 10 µM: read-out: Inhibitory Effects (%) hOCT2 10 µM Mean; for inhibition at 100 µM: read-out: Inhibitory Effects (%) hOCT2 100 µM Mean. The protocol: (§1) The uptake assays were performed as previously described in 24-well plates. […] After incubation, the uptake was stopped by aspirating the reaction mixture and washing the cells three times with 0.4 mL ice-cold PBS buffer. Cells were then solubilized with 0.6 mL of 1 N NaOH, overnight. The whole content of each well (0.6 mL) was transferred to a scintillation vial (Perkin Elmer). The radio-labelled amount was determined by liquid scintillation counting.
(§2) All inhibition experiments were conducted on at least two separate days in triplicate.
(§3) For screening experiments, cis-inhibition was carried out in duplicate by measuring the uptake of the labeled probe substrate in the absence and presence of 10 µM or 100 µM of the respective pesticide or drug. […] Inhibitory effects in percent were calculated from net-uptake. […]

Data set [3] addresses T2, mOct2 (Mus musculus, UniProt O70577).
T2 sequence (O70577 1-553): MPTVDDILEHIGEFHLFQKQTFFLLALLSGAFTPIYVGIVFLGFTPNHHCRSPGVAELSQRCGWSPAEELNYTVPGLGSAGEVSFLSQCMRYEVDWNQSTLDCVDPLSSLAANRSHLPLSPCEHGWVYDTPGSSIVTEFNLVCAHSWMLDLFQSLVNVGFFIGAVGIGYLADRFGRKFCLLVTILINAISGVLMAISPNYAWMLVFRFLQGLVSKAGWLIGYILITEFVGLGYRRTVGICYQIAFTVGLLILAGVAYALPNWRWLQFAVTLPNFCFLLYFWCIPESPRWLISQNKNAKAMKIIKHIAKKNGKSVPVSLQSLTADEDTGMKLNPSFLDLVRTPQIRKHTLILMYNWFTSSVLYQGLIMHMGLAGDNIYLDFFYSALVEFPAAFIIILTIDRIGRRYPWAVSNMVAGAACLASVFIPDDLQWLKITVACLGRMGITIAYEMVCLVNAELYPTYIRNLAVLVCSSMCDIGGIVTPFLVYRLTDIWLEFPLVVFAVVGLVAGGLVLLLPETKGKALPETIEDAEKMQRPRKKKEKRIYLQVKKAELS
Description: Inhibition of mOct2-mediated 14C-metformin uptake in transfected HEK293 cells. It counts as cell-based. Also noted: expressed in transfected cells; host or cells: HEK293 (stably transfected). Particulars: HEK293; for inhibition at 10 µM: read-out: Inhibitory Effects (%) mOct2 10 µM Mean; for inhibition at 100 µM: read-out: Inhibitory Effects (%) mOct2 100 µM Mean. As for the experimental part: as §1, §2, §3

The target of data set [4] is T1, hOCT2. Also noted: expressed in transfected cells; host or cells: HEK293 (stably transfected). The settings on record: read-out: IC50, hOCT2-mediated MPP uptake; cited from earlier work.
For data set [5], the target named is T1, hOCT2. Also noted: expressed in transfected cells; host or cells: HEK293 (stably transfected); method as in ref 39 (Vermeer et al.). Particulars: ref 39 (Vermeer et al.); cited from earlier work.
Data set [6] has as its system OCT2. More on the design: method as in PMID 19833842. The settings on record: OCT2-overexpressing HEK293 cells; read-out: IC50, YM155 uptake; cited from earlier work.
[7] abbreviates: 10 µM test compound, 1 µM [14C]metformin, 2 min, negative = stimulation.
[8] abbreviates: HEK293, 10 µM test compound, 1 µM [14C]metformin, 2 min, negative = stimulation.
Where [9] appears, read: HEK293, 100 µM test compound, 1 µM [14C]metformin, 2 min, negative = stimulation.

Read-outs that look alike come from different tables or passages of the source.

As to `Clc1cccc(Cl)c1N=C1NCCN1` [Clonidine], the half-maximal inhibitory concentration (IC50) in data set [1] was 0.68 µM; in data set [4], 6 µM. For the same molecule, the “Inhibitory Effects (%) hOCT2 10 µM Mean” value in data set [2] (setting [7]) is reported as 40%. The results for the inhibition at 10 µM in data set [2] (setting [8]) and in data set [3] (setting [8]) were 60% and 46%, respectively. Further, the inhibition at 100 µM is 76% in data set [2] (setting [9]) and 89% in data set [3] (setting [9]). In addition, in data set [3] (setting [7]), the “Inhibitory Effects (%) mOct2 10 µM Mean” value stood at 54%.
For `CC(=O)N1CCN(c2ccc(OCC3COC(Cn4ccnc4)(c4ccc(Cl)cc4Cl)O3)cc2)CC1` (stereo not drawn) [Ketoconazole], the inhibition at 10 µM in data set [2] (setting [8]) stood at 31%; in data set [3], 49%. Moreover, the inhibition at 100 µM in data set [2] (setting [9]) and in data set [3] was 87% in each case. Besides, the 50% inhibitory concentration (IC50) in data set [5] was 0.89 µM.
In the case of `CCN(CC)CCNC(=O)c1ccc(N)cc1` [Procainamid], the half-maximal inhibitory concentration (IC50) in data set [6] is 92 µM. For the same molecule, the inhibition at 10 µM is -20% in data set [2] and -16% in data set [3] (setting [8]). The figures for the inhibition at 100 µM in data set [2] and in data set [3] (setting [9]) were -44% and -30%, respectively.

As usually defined, the IC50 is the concentration that gives 50% inhibition.
